The values that follow come from patent publication US11198680B2 (BioAxone BioSciences, Inc., priority 2016, dated 2021).

The test system of test [1] is Rho/ROCK activity (MLC2 diphosphorylation) in HUVECs. The test is described as follows: LPA-treated HUVECs, pMLC2 T18/S19 immunoblot. It counts as cell-based, human. The conditions noted are these: 1-100 μM 1 hr, 20 μM LPA 5 min. Background: Immunoblotting shows a protein as a band on a membrane.
Experimental: (§1) Cell lines were exposed to each dose for 1 hr, and then are stimulated with 20 μM LPA for either 5 min or 1 hr as described below. All experiments were conducted in triplicate and analyzed by two independent assessors blinded to both cell line and treatment.
Cells were subjected to biochemical analysis of diphosphorylated MLC2 (Threonine 18/Serine 19 phosphorylation sites) and cofilin (Serine 9 phosphorylation site) using SDS-PAGE and immunoblotting. Cells were plated in 24-well tissue culture plates coated with 70 μg/ml rat collagen-1 (Corning; Corning, N.Y.), and grown for 2 d to 3 d at 37° C./5% CO2 until confluency. […] Then medium was exchanged for Medium 200 supplemented with 0.1% HSA (Sigma-Aldrich) and 20 μM of LPA (Santa Cruz Biotech; Santa Cruz, Calif.) and incubated for 5 min. After LPA stimulation, proteins were extracted from cells by lysis with RIPA buffer supplemented with HALT complete protease/phosphatase inhibitor (ThermoFisher, Waltham, Mass.), reduced and denatured using Laemmli sample buffer (BioRad, Hercules, Calif.)/beta-mercaptoethanol and subjected to SDS-PAGE.
Denatured samples were electrophoresed in reducing 10% Bis-Tris-gels polyacrylamide gels (Novex; Thermo-Fisher, Waltham, Mass.) and were transferred onto 0.25 μm PVDF membranes (EMD Millipore, Billerica, Mass.). Membranes are probed using amti-pMLC2 T18/S19 (1:500; Cell Signaling, Danvers, Mass.) or anti-pCofilin S9 (1:500, Cell Signaling, Danvers, Mass.) and anti-glyceraldehyde 3-phosphate dehydrogenase loading control (GAPDH, 1:10000; Abcam). Protein levels were detected using chemiluminescence substrate (Super Signal West, ThermoFisher, Waltham, Mass.) and images captured using a FluoroChem SP Imaging System.
For test [2], the target named is T1, ROCK2 (Homo sapiens (Human), UniProt O75116). The following applies: for Fold-Difference: ROCK1 KD vs ROCK2 KD.
T1 sequence (O75116 whole entry, species assumed): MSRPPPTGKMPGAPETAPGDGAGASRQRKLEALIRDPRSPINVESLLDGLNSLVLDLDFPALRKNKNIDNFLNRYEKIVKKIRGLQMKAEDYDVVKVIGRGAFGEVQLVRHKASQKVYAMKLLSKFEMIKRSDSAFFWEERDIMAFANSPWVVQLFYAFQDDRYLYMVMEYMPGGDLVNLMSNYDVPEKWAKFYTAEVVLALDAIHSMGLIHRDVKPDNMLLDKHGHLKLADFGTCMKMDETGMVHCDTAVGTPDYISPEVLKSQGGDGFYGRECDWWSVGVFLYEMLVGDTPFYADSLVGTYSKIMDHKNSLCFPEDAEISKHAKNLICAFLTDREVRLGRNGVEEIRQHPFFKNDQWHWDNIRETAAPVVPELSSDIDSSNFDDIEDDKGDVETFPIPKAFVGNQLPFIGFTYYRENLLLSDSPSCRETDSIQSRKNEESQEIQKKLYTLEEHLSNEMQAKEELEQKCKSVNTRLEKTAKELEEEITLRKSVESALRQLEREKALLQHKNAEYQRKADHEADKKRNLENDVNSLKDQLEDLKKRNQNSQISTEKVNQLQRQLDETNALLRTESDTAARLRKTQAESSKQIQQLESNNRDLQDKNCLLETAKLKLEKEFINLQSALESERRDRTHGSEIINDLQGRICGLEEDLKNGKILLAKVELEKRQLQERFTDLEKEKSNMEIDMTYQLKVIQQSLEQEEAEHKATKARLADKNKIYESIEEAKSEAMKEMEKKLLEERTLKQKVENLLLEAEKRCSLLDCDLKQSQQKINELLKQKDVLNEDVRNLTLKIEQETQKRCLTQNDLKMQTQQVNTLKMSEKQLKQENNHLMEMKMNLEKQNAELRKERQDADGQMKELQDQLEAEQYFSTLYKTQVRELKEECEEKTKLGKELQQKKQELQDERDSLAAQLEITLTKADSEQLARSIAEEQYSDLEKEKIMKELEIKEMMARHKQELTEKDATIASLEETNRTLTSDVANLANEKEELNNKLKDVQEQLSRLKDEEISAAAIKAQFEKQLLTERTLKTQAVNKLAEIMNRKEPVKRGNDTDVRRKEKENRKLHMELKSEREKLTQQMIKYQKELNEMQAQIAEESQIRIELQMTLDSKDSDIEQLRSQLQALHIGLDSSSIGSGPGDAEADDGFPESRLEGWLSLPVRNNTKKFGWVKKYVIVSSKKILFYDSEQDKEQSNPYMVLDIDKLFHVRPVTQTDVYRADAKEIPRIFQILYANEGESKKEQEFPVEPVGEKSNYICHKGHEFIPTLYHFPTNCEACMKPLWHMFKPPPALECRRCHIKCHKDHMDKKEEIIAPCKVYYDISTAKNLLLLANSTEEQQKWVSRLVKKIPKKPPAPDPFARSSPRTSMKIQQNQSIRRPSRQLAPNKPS
Experimental: (§2) The assay is performed by combining the DNA-tagged kinase, immobilized ligand, and a test compound. The ability of the test compound to compete with the immobilized ligand is measured via quantitative PCR of the DNA tag.
(§3) The highest concentration tested was 30 μM.
Test [3] deals with T2, ROCK1 (Homo sapiens (Human), UniProt Q13464). Kind of test: Direct filter-binding radiometric kinase assay, IC50 determination. It counts as biochemical. On the procedure:
Variations in ATP concentrations were tested to better understand potential selectivity in ischemic and diseased tissue where ATP concentrations may be low and impact selectivity.
[…] Both services use a direct filter-binding, radiometric kinase assay with slight variation in protocol.
The top concentration tested was 100 μM for both services. Test compounds were prepared in 100% DMSO at 50× final test concentration and were diluted to 1× in the assay with a final DMSO concentration of 2%.
For one assay, the substrate […] (SEQ ID NO:1) (30 μM) was mixed with reaction buffer (Table 4) and the kinase domain from either the ROCK1 or ROCK2 (as indicated in Table 4). Next, the compounds (in DMSO) were delivered into the mixture via acoustic mixing technology (Echo550, nanoliter range) (SelectScience, Waltham, Mass.), and incubated at RT for 20 min. […] Reactions were then spotted onto P81 ion exchange paper followed by scintillation counting.
The reaction was stopped by the addition of 3% phosphoric acid and 10 μL of the reaction was spotted onto P30 filtermat, washed 3 times in 75 mM phosphoric acid and once in methanol prior to scintillation counting.

For test [4], the target named is T1, ROCK2. The test is described as above. Type of test: biochemical.
The subject of another test is hBMVEC monolayer. The test is described as follows: LPA-treated hBMVECs, endothelial monolayer integrity. The following applies: 1 μM or 10 μM, 20 μM LPA, Example 16, present tense. It counts as cell-based, human.
For test [5], the target named is T2, ROCK1.
Experimental: as §2, §3
The test system of another test is HUVEC monolayer. The test is described as follows: LPA-treated HUVECs, endothelial monolayer integrity. Type of test: cell-based, human. The following applies: 1 μM or 10 μM, 20 μM LPA 60 min.
Test [6] relates to Rho/ROCK activity (MLC2 diphosphorylation) in human brain microvascular endothelial cells. Kind of test: LPA-treated hBMVECs, pMLC2 T18/S19 immunoblot. The conditions noted are these: 20 μM LPA, Example 16, present tense, no data shown. It counts as cell-based.
Experimental: (§4) Cells are exposed to each dose for 1 hr, and are then stimulated with 20 μM LPA for either 5 min or 1 hr as described below. All experiments are conducted in triplicate and analyzed by 2 independent assessors blinded to both cell line and treatment.
Cells are subjected to biochemical analysis of diphosphorylated MLC2 (Threonine 18/Serine 19 phosphorylation sites) and phosphorylated cofilin (Serine 9 phosphorylation site) using SDS-PAGE and immunoblotting. Cells are plated in 24-well tissue culture plates coated with 70 μg/ml rat collagen-1 (Corning) and grown in ENDO-growth media (Neuromics) for 3 days at 37° C./5% CO2 until confluency. […] The medium is exchanged for ENDO basal media supplemented with 1% HSA, 20 μM of LPA (Santa Cruz Biotech; Santa Cruz, Calif.) and the appropriate amount of compound being tested. After 5 min, the medium is aspirated and the cells are briefly washed with 1×PBS. Proteins are extracted from cells by lysis with RIPA buffer supplemented with complete protease/phosphatase inhibitor (HALT, Thermo Fisher Scientific), reduced and denatured using Laemmli sample buffer (BioRad; Hercules, Calif., beta-mercaptoethanol and subjected to SDS-PAGE.
Denatured samples are electrophoresed in reducing 10% Bis-Tris-PA gels (Novex; Thermo-Fisher), and are transferred onto 0.25 μm PVDF membranes (EMD Millipore). Membranes are probed using amti-pMLC2 T18/S19 (1:500; Cell Signaling) or anti-pCofilin (1:500, Cell Signaling S9) and anti-glyceraldehyde 3-phosphate dehydrogenase loading control (GAPDH, 1:10000; Abcam, Cambridge, Mass.). Protein levels are detected using a chemiluminescence substrate (Super Signal West, ThermoFisher) and images are captured using a FluoroChem SP Imaging System.
The test system of the next test is phospho-MLC2 (Ser19). Kind of test: Transient MCAO stroke model, phospho-MLC2 (Ser19) immunohistochemistry of insular cortex. The following applies: 10 mg/kg I.P. It counts as in vivo, mouse. On the procedure: For immunohistochemistry, mice were anesthetized using isoflurane and perfused intracardially using paraformaldehyde (4% PFA), brain and weights were recorded. Brain specimens from fixed animals were frozen in OCT and sectioned using a cryostat.
Frozen tissue sections embedded in OCT were analyzed by immunohistochemistry. The left side of the brain slice contains ischemic tissue due to the MCAO while the right hemisphere acts as a control without ischemia. Staining with these antibodies provide biomarkers for both ischemic area and ROCK2 activation.

For test [7], the system named is ROCK2 activation (phospho-cofilin). The test is described as follows: Transient MCAO stroke model, phospho-cofilin Western blot left versus right brain. Type of test: in vivo, mouse. The following applies: 10 mg/kg I.P. within 30 min after MCAO, tissue 24 hr post MCAO.
Experimental: The murine intraluminal monofilament model of middle cerebral artery occlusion (MCAO) is used on mice in this study. MCAO involves the insertion of a surgical filament into the external carotid artery and threading it forward into the internal carotid artery until the tip occludes the origin of the MCA, resulting in a cessation of blood flow and subsequent brain infarction in the MCA territory. The technique is used herein to model transient occlusion. If the filament is removed after 1 h, reperfusion is achieved (transient MCAO). This study determines the most efficacious dose and route of administration that reduce Rho-kinase 2 (ROCK2) activation following transient MCAO-induced stroke in mice. The pharmacodynamic response is also determined in this study.
Twenty-eight 9-wk old C57BL/6 (Charles River Laboratories) were used in this study. For surgery, the mouse was placed in a supine position on an infrared heating pad. The fur over the ventral neck was shaved and the skin was disinfected with 70% ethanol and povidone iodine. Under a stereo dissecting microscope, a 1 cm midline incision was made on the neck and retractors were used to expose the left common carotid artery (CCA), the external carotid artery (ECA) and the internal carotid artery (ICA). The arteries were carefully dissected to free them from surrounding nerves and fascia. The ECA was dissected further distally and two 8-0 silk sutures are tied around the ECA stump and a vascular clamp was applied at the bifurcation of the CCA into the ECA and ICA. A small incision was made at the end of ECA stump with Vannas-style spring scissors. A blunt 5-0 monofilament suture (Doccol) was inserted into the incision and advanced from the lumen of the ECA into the ICA for a distance of 9-10 mm beyond the bifurcation of CCA to occlude the origin of MCA. For the mouse model, a distance of 9 mm-11 mm rostral to the CCA bifurcation is inserted. After 60 min., the monofilament was removed. The incision was sutured with 4.0 prolene sutures. […] The mouse is allowed to recover on a heating pad until thermoregulation is re-established.
For Western blot analysis, mice were anesthetized using isoflurane and decapitated. […]
20 μL protease inhibitor (Halt, Protease, Fisher Scientific, Pittsburgh, Pa.) and 10 μL phosphatase inhibitor (Fisher Scientific) were added to 1 mL RIPA buffer (Santa Cruz Biotechnology, Dallas, Tex.). […] The protein concentration of each sample was determined using the DC Protein Assay Kit and following the manufacturer's instructions.
The left and right hemispheres of each brain were homogenized and prepared for Western blotting, and the signal of phospho-cofilin was measured quantitatively by densitometry compared to an internal standard, cyclophilin. […]
In test [8] the target is SERT (serotonin transporter) (Homo sapiens (Human), UniProt P31645). The following applies: Sturdivant et al., ibid.; cited from earlier work.
In test [9] the target is NET (norepinephrine transporter) (Homo sapiens (Human), UniProt P23975). The following applies: Sturdivant et al., ibid.; cited from earlier work.
In test [10] the test system is human umbilical vein endothelial cells (HUVECs). The test is described as follows: LPA-stimulated HUVECs, actin stress fibers and vinculin. Type of test: cell-based. The following applies: 50 μM, 20 μM LPA 10 min.
Experimental: Primary HUVEC cells (Gibco®, Thermo Fisher, Waltham, Mass.) are cultured in endothelial growth media (Gibco® Medium 200 basal media Cat supplemented with Gibco® Large Vessel Endothelial Supplement). HUVECs between passage 1 and 4 are used for all experiments. HUVECs are cultured on poly-D-lysine-treated glass coverslips (Corning, Corning, N.Y.) coated with 70 μg/ml rat collagen I (Corning, Corning, N.Y.) and cultured for 4 d until a confluent monolayer of cells is established. […] Then HUVECs are stimulated with 20 μM LPA for 10 min and subsequently fixed using 4% paraformaldehyde (PFA)/sucrose solution.
After PFA fixation, cells on coverslips are permeabilized with TBS-Triton-X100 (0.1%), blocked with 1% bovine serum albumin and incubated with mouse vinculin primary antibody (Table 16). Vinculin immunolabelling is visualized using a secondary anti-mouse fluorescent antibody (Table 16). Actin cytoskeleton is visualized by staining with fluorescent phalloidin (Table 16), a compound that specifically binds F-actin filaments. Epifluorescence microscopy is used to acquire images of Immuno- and phalloidin fluorescence, respectively.
Test [11] concerns the target T1, ROCK2. The test is described as follows: ROCK2 inhibition curves, MYPT1 substrate plate assay. Type of test: biochemical. The following applies: purified ROCK2, MYPT1 substrate. The procedure:
Each compound was dissolved at 100 mM in DMSO. This compound-DMSO solution is diluted to 500 μM in dH2O. Serial dilutions were prepared so that a semi-log range of compound is present after being diluted 5× in other assay reagents, from 100 μM through 1 nM.
10 μL of each concentration of each compound was added in duplicate to individual wells of a 96-well Maxisorp plate (ThermoFisher) pre-coated with the ROCK2 substrate MYPT1 (ThermoFisher). dH2O is added as a negative control.
Using a multichannel pipettor, […] of final volume per well was made by the addition of the following of each solution to begin the reaction: 10 μL 20 mM MOPS pH 7.2, 25 mM β-glycerophosphate, 5 mM EGTA, 1 mM Na3VO4, and 1 mM DTT, 10 μL 50 μM ATP, 10 μL 75 mM MgCl2, and 10 μL 1 mU/μL ROCK2 solution. […]
100 μL TMB/E solution was added to each well with a multichannel pipette. Upon sufficient color development, the reaction was stopped using 100 μL stop solution and absorbance read using a Wallac Victor2 plate reader at 450 nm.
Because absorbance values proportional to ROCK2 activity, plotting absorbance at 450 nm versus final concentration of metabolite and parent compound provides inhibition curves. Relative inhibitory profiles were determined through 4PL analysis of these curves. Variations in calculated IC50 are common before assay optimization due to variations in experimental variables.

Where [12] appears, read: read-out: Compound IC50 ROCK1 10 μM ATP, CRO Eurofins, 10 μM ATP.
The mark [13] stands for this setting: read-out: Compound IC50 ROCK2 10 μM ATP, CRO Eurofins, 10 μM ATP.

Like-named read-outs stand apart in the source and are kept apart here.

T2 sequence (Q13464 2-1354 limits assumed): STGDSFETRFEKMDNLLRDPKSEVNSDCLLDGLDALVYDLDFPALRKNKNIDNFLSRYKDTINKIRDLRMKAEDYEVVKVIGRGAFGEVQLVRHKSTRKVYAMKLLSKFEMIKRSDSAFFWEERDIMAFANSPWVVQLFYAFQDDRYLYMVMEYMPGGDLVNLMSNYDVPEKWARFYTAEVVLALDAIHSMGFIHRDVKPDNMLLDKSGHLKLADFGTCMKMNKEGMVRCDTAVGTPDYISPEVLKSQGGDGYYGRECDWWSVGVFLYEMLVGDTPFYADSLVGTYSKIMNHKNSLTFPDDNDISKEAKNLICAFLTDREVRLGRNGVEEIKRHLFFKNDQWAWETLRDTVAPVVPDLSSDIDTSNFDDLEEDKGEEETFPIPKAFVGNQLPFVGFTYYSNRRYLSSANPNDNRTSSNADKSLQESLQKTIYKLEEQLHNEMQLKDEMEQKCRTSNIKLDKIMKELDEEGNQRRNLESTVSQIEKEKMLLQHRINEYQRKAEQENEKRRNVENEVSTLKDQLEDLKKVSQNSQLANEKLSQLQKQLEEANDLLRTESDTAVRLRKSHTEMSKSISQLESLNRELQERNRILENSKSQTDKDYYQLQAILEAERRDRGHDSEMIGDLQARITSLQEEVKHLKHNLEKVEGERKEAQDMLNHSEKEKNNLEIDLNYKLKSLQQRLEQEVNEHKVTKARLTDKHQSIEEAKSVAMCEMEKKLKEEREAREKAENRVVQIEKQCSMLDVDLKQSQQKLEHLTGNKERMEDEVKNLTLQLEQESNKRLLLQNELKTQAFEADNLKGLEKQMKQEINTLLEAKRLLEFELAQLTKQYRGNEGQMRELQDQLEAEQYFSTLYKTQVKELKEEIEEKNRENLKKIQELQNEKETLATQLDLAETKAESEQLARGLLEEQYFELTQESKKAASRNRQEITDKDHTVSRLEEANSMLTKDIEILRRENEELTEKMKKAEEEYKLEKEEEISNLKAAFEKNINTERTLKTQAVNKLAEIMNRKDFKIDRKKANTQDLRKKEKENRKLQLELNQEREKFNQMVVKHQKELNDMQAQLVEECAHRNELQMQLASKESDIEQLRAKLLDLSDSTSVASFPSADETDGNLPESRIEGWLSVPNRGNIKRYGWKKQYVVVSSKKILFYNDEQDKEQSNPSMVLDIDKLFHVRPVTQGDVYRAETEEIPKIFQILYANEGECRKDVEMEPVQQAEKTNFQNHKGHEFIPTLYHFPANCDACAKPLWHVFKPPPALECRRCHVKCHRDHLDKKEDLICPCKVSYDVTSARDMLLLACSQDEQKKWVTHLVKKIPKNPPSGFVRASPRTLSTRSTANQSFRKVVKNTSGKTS
Experimental for HUVEC monolayer: as §1
To examine HUVEC monolayer integrity, cells were plated on PDL-coated coverslips (Corning) coated with fibronectin, collagen-1 and gelatin. 50,000 cells were seeded on each coverslip situated in a 24-well plate. Cells were grown for 3 days at 37° C./5% CO2. […] The medium was exchanged by Medium 200 supplemented with 0.1% HSA and 20 μM of LPA (Santa Cruz) and incubated for 60 min.
After LPA stimulation, cells were fixed with 4% paraformaldehyde and stained for actin-phalloidin (ThermoFisher, Waltham, Mass.) and V-Cadherin (Cell Signaling, Danvers, Mass.) and mounted on microscope slides. Coverslips were imaged by fluorescence microscopy and the cell free holes in the monolayer are measured using Image J (freeware; https://imagej.nih.gov/ij/).
Experimental for hBMVEC monolayer: as §4
To examine hBMVECs monolayer integrity, cells are plated on PDL-coated coverslips (Corning) coated with Fibronectin, Collagen-1 and gelatin. 50,000 cells are seeded on each coverslip situated in a 24-well plate. Cells are grown for 3 days in ENDO-growth media (Neuromics) at 37° C./5% CO2. […] The medium is exchanged for ENDO basal media supplemented with 1% HSA, 20 μM of LPA (Santa Cruz Biotech; Santa Cruz, Calif.) and the appropriate amount of compound being tested. After 60 min, cells were fixed with 4% paraformaldehyde and stained for actin-phalloidin (ThermoFisher) and V-Cadherin (Cell Signaling), and then were mounted on microscope slides. Coverslips were imaged by fluorescence microscopy and the cell-free holes in the monolayer are measured using Image J. 3.

As for `C[C@H](N)C1CCN(S(=O)(=O)c2cccc3cnccc23)CC1`, the “effect on MLC2 diphosphorylation (pMLC2 T18/S19)” value in test [1] and in test [6] was “reduce MLC2 diphosphorylation” throughout. The Fold-Difference on ROCK2 [2] (Table 5) is recorded as 0.9; at ROCK2 [4] (CRO Eurofins, 10 μM ATP), 14.1; on ROCK2 [4] (CRO Reaction Biology, 10 μM ATP) it was 2.0; on ROCK2 [4] (ROCK1 (70 μM ATP) vs ROCK2 (15 μM ATP) IC50), 57.9; at ROCK2 [4] (ROCK1 vs ROCK2 IC50, 10 μM ATP), 14.1. Also, the “Fractional Selectivity for ROCK2” value at ROCK2 [2] (ratio of dissociation constants ROCK1/ROCK2) came out at 0.92. For the same compound, the Kd (commonly the constant that tells how readily two partners part at equilibrium) at ROCK2 [2] (read-out: ROCK2 KD, average of duplicate determinations, Table 5) amounted to 160 nM; at ROCK2 [2] (read-out: ROCK2 Kd, Table 1) it was 130 nM; on ROCK1 [5] (read-out: ROCK1 KD, average of duplicate determinations, Table 5), 155 nM; at ROCK1 [5] (read-out: ROCK1 Kd, Table 1) it was 120 nM. Also, the IC50 (in general, the concentration needed to halve the response being measured) on ROCK1 [3] (10 μM ATP, Table 2, read-out: Compound IC50 ROCK1) is 10200 nM; at ROCK1 [3] (setting [12]), 10200 nM; at ROCK1 [3] (read-out: Compound IC50 ROCK1 10 μM ATP, CRO Reaction Biology, 10 μM ATP) it was 1440 nM; on ROCK1 [3] (read-out: Compound IC50 ROCK1 70 μM ATP, Km ATP 70 μM, Table 3) it was 57900 nM; on ROCK1 [3] (read-out: Compound IC50 ROCK1 70 μM ATP, Km ATP 70 μM, Table 7), 57900 nM; at ROCK2 [4] (10 μM ATP, Table 2, read-out: Compound IC50 ROCK2), 730 nM. Besides, the IC50 on ROCK2 [4] (setting [13]) was 730 nM; on ROCK2 [4] (read-out: Compound IC50 ROCK2 10 μM ATP, CRO Reaction Biology, 10 μM ATP) it was 720 nM; on ROCK2 [4] (read-out: Compound IC50 ROCK2 15 μM ATP, Km ATP 15 μM, Table 3), 1000 nM; at ROCK2 [4] (read-out: Compound IC50 ROCK2 15 μM ATP, Km ATP 15 μM, Table 7), 1000 nM. For the same compound, in the test with hBMVEC monolayer, the “monolayer integrity / Rho/ROCK activation after LPA” value was “neither concentration reverses the effect of LPA”. For the same compound, the “monolayer integrity after LPA” value with HUVEC monolayer is given as “neither concentration reverses the effect of LPA”.
Regarding `CC(N)C1CCN(S(=O)(=O)c2cccc3cnccc23)CC1` (racemic) [BA-1049], the “phospho-MLC2 (Ser19) staining of small blood vessels of insular cortex” value in the test with phospho-MLC2 (Ser19) was “even more effective than Fasudil at reducing small vessel staining”. For the same compound, the Fold-Difference at ROCK2 [2] (Table 5, listed as Racemic BA-1049: Lot 1) worked out at 1.2; at ROCK2 [2] (Table 5, listed as Racemic BA-1049: Lot 2), 1.3; at ROCK2 [4] (CRO Eurofins, 10 μM ATP) it was 12.4; at ROCK2 [4] (CRO Reaction Biology, 10 μM ATP, listed as Racemic BA-1049: Lot 1) it was 2.1; at ROCK2 [4] (CRO Reaction Biology, 10 μM ATP, listed as Racemic BA-1049: Lot 2) it was 2.8; at ROCK2 [4] (CRO Upstate Cell Signaling, 10 μM ATP), 12.8. The Kd was 46 nM on ROCK2 [2] (read-out: ROCK2 KD, average of duplicate determinations, Table 5, listed as Racemic BA-1049: Lot 1); 66 nM at ROCK2 [2] (read-out: ROCK2 KD, average of duplicate determinations, Table 5, listed as Racemic BA-1049: Lot 2); 54 nM at ROCK1 [5] (read-out: ROCK1 KD, average of duplicate determinations, Table 5, listed as Racemic BA-1049: Lot 1); 89 nM at ROCK1 [5] (read-out: ROCK1 KD, average of duplicate determinations, Table 5, listed as Racemic BA-1049: Lot 2). Further, the 50% inhibitory concentration (IC50) at ROCK1 [3] (setting [12]) is 6800 nM; on ROCK1 [3] (read-out: Compound IC50 ROCK1 10 μM ATP, CRO Reaction Biology, 10 μM ATP, listed as Racemic BA-1049: Lot 1), 1280 nM; at ROCK1 [3] (read-out: Compound IC50 ROCK1 10 μM ATP, CRO Reaction Biology, 10 μM ATP, listed as Racemic BA-1049: Lot 2), 1020 nM; at ROCK1 [3] (read-out: Compound IC50 ROCK1 10 μM ATP, CRO Upstate Cell Signaling, 10 μM ATP), 10200 nM; on ROCK2 [4] (setting [13]), 550 nM; at ROCK2 [4] (read-out: Compound IC50 ROCK2 10 μM ATP, CRO Reaction Biology, 10 μM ATP, listed as Racemic BA-1049: Lot 1) it was 600 nM. The IC50 is 1020 nM at ROCK2 [4] (read-out: Compound IC50 ROCK2 10 μM ATP, CRO Reaction Biology, 10 μM ATP, listed as Racemic BA-1049: Lot 2) and 800 nM on ROCK2 [4] (read-out: Compound IC50 ROCK2 10 μM ATP, CRO Upstate Cell Signaling, 10 μM ATP). Moreover, in test [7], the “ratio of phospho-cofilin expression left (MCAO) versus right hemisphere” value is listed as “strongly reduced”.
Regarding `Cc1ccc(C(=O)OCc2ccc([C@@H](CN)C(=O)Nc3ccc4cnccc4c3)cc2)c(C)c1` [AR-13324], in test [8], the “% Inhibition of Neurotransmitter Transporter Activity, SERT” value is listed as 94%. Further, the “% Inhibition of Neurotransmitter Transporter Activity, NET” value in test [9] was 96%.
With `O=S(=O)(c1cccc2cnccc12)N1CCCNCC1` [Fasudil], in test [10], the “actin stress fiber formation upon LPA stimulation” value is recorded as “prevents such formation of stress fiber” and the “vinculin immunofluorescence, integrity of HUVEC monolayer upon LPA stimulation” value was “upregulation of vinculin-positive focal adhesion complexes associated with a decreased cell confluency”. For the same compound, the “phospho-MLC2 (Ser19) staining of small blood vessels of insular cortex” value in the test on phospho-MLC2 (Ser19) is on record as “reduces the amount of staining”.
Regarding `C[C@@H](N)C1CCN(S(=O)(=O)c2cccc3c[n+]([O-])ccc23)CC1` [N-oxide-BA-1049 (R)], the entries for the “effect on MLC2 diphosphorylation (pMLC2 T18/S19)” value in [1] and in test [6] were “did not show such an effect” and “do not show such an effect”, respectively. For the same compound, the “inhibitory activity for ROCK2 relative to parent BA-1049 (R)” value on ROCK2 [11] is on record as “does not exhibit any inhibitory activity”.
